Results: article PMC4563558, “Discovery of a series of novel phenylpiperazine derivatives as EGFR TK inhibitors” (Scientific Reports, 2015)

Key:
[1] = tested on: Erythrocytes; experiment: Hemolysis test; format: cell-based; conditions: human erythrocytes, 3 h incubation
Method: Hemolytic activity was assayed using fresh capillary human blood. Erythrocytes were collected by centrifuging the blood three times in chilled phosphate buffered saline (PBS at 4 °C) at 1000 × g for 10 min. The final pellet was resuspended in PBS to give a 2% w/v solution. Using a microtitre plate, 100 μL of the erythrocyte solution was added to dextran, PLL, stearyl-PLL or stearyl-PLL+LDL (1–1000/μg/mL) in a volume of […]. Samples were then incubated for 3 h and the microtitre plate was centrifuged then at 1000 × g for 10 min and the supernatants (100 μL) transferred into a new microtitre plate. Hemoglobin release was determined spectrophotometrically using a microtitre plate reader (absorbance at 550 nm). Results were expressed as the amount of released hemoglobin induced by the compounds as a percentage of the total. Hemolysis test was tested according to the guide of biological evaluation of medical device (SFDA, China).

[2] = tested on: Lung cells; experiment: MTT assay, human normal lung cell line; format: cell-based; conditions: read-out: IC50 ± SD, Lung cells
Method: (§1) To test the antiproliferative activities of the synthesized compounds (see supplementary Scheme S1 and S2), the target compounds were evaluated in vitro antiproliferation assays against three human cancer cell lines (MCF-7, HeLa and A549) and one human normal lung cell line.
(§2) The in vitro anticancer activities of the prepared compounds against MCF-7, HeLa and A549 cell lines were evaluated as described in the literature[23] with some modifications. Target tumor cells were grown to log phase in DMEM medium supplemented with 10% fetal bovine serum. After reaching a dilution of 1 × 10^5 cells mL^−1 with the medium, 100 μL of the obtained cell suspension was added to each well of 96-well culture plates. Subsequently, incubation was performed at 37 °C in 5% CO2 atmosphere for 48 h before the cytotoxicity assessment. Tested samples at preset concentrations were added to 6 wells with Erlotinib being employed as a positive reference. After 72 h exposure period, 25 μL of PBS containing 2.5 mg mL^−1 of MTT was added to each well. After 4 h, the medium was replaced by 150 μL DMSO to dissolve the purple formazan crystals produced. The absorbance at 570 nm of each well was measured with an ELISA plate reader. The data represented the mean of three independent experiments in triplicate and were expressed as means ± SD. The IC50 value was defined as the concentration at which 50% of the cells could survive.

[3] = in vitro; format: cell-based; conditions: mouse
Method: The cytotoxic activity in vitro was measured against mouse fibroblast NIH-3T3 cells using the MTT assay. Cells were cultured in a 96-well plate at a density of 5 × 10^5 cells and different concentrations of compounds were respectively added to each well. The incubation was permitted at 37 °C, 5% CO2 atmosphere for 24 h before the cytotoxicity assessments. 20 μL MTT reagent (4 mg/mL) was added per well 4 h before the end of the incubation. Four hours later, the plate was centrifuged at 1200 rcf for 5 min and the supernatants were removed, each well was added with 200 μL DMSO. The absorbance was measured at a wavelength of 490 nm (OD 490 nm) on an ELISA microplate reader. Three replicate wells were used for each concentration and each assay was measured three times, after which the average of IC50 was calculated.

[4] = tested on: MCF-7; experiment: MTT antiproliferation assay, MCF-7; format: cell-based; conditions: Homo sapiens, MCF7, 72 h exposure, read-out: IC50 ± SD, MCF-7
Method: as §1, §2

[5] = target: PDGFR; experiment: Kinase selectivity assay (kit), PDGFR; format: biochemical; conditions: read-out: Inhibition of PDGFR IC50
Method: (§3) To validate whether the above anti-proliferative effect was produced by interaction of EGFR protein and the synthesized compounds, the synthesized compounds were evaluated for their abilities to inhibit the activity of four protein kinases relevant to cancer: EGFR, VEGFR2, bFGF, PDGFR. […] Additionally, the activity data inferred that the IC50 values of these compounds shared a similar tendency with their relevant IC50 values of anti-proliferative assay. […] Therefore, we could conclude that the synthesized inhibitors can inhibit the function of EGFR and the anti-proliferative effect was produced partly by interaction of EGFR protein and the compounds.
(§4) The EGFR, VEGFR2, bFGF and PDGFR Kinase Assay Kit were purchased from Bio-Swamp. The experiments were performed according to the manufacturer’s instructions.

[6] = target: T1, EGFR (Homo sapiens, UniProt P00533); experiment: Kinase selectivity assay (kit), EGFR; format: biochemical; conditions: read-out: Inhibition of EGFR IC50
T1 construct: purchased Bio-Swamp
Method: as §4

[7] = tested on: MCF-7, HeLa and A549 cell lines; experiment: Anticancer activities discussed in text (cell line not specified); format: cell-based, human; conditions: comparison within series and with positive control
Method: According to the data presented in Table 1, it could be concluded that the activity of the tested compounds may be correlated to the variation and modifications of structure.
as §2

[8] = target: bFGF; experiment: Kinase selectivity assay (kit), bFGF; format: biochemical; conditions: read-out: Inhibition of bFGF IC50
Method: as §3, §4

[9] = tested on: A549; experiment: MTT antiproliferation assay, A549; format: cell-based; conditions: Homo sapiens, 72 h exposure, read-out: IC50 ± SD, A549
Method: as §1, §2

[10] = Acute oral toxicity, bodyweights; format: in vivo; conditions: mice; for Bodyweights 0 day ± SD: day 0; for Bodyweights 7 days ± SD: day 7
Method: Before the acute toxicity experiment, mice were stopped being served food but water was kept for 3 h. The test substances were dissolved in maize germ oil[24]. The preliminary experiment was performed as follows: Four dose levels, 100, 500, 2000, and 5000 mg/kg body weight and three mice for each level were used. We observed the death and evident toxicity in 7 days to determine the general concentration range. Then the administration doses were graded with geometric progression for ease of the calculation of LD50. Mice were randomly divided into groups (10 mice/group). […] The control groups received maize germ oil only. After the administration, food was withheld for 2 h.

[11] = tested on: HeLa; experiment: MTT antiproliferation assay, HeLa; format: cell-based; conditions: Homo sapiens, 72 h exposure, read-out: IC50 ± SD, HeLa
Method: as §1, §2

[12] = target: T2, VEGFR2 (Homo sapiens, UniProt P35968); experiment: Kinase selectivity assay (kit), VEGFR2; format: biochemical; conditions: read-out: Inhibition of VEGFR2 IC50
T2 construct: purchased Bio-Swamp
Method: as §3, §4

[13] = tested on: A549 cells; experiment: Tumor volume in nude mice inoculated with A549 cells; format: in vivo; conditions: 20 mg/kg/2 days, day 14
Method: To further evaluate the antitumor effect of compound 3p in vivo, we performed an animal study. Mice were inoculated subcutaneously with A549 cells (5.0 × 10^6) on their shoulders. […]. […] […].
Male BALB/c nude mice, 35–40 days old and weighing 18–22 g, were supplied by Shanghai Laboratory Animal Limited Company. The mice were raised in air-conditioned rooms under controlled lighting (12 h lighting/day) and were fed with standard laboratory food and water ad libitum. Before injection into the mice, the lung cancer cells (A549) were harvested by trypsinization and washed three times with cold serum-free medium and then injected in a total volume of 0.1 mL using a 1-mL latex-free syringe (BD) within 30 min of harvest. Mice were inoculated subcutaneously with A549 cells (5.0 × 10^6) on their shoulders. When the tumor had increased to 100 mm^3 , the mice were equally randomized into 4 groups (with 6 mice/group): saline tumor control group; compound 3p 20 mg/kg/2 days group; compound 3p 40 mg/kg/2 days group; […]. The control group received 0.9% normal saline. Tumor size was measured once every 2 days in two per-pendicular dimensions with Vernier calipers and converted to tumor volume (TV) using the formula: (ab^2)/2, where a and b refer to the longer and shorter dimensions, respectively. The body weight of the animals was measured twice a week at the same time as the tumor dimension measurement and the mortality was monitored daily. After the treatments, all mice were killed and weighed simultaneously, and then tumor was segregated and weighed.

T1 sequence (P00533 25-1210): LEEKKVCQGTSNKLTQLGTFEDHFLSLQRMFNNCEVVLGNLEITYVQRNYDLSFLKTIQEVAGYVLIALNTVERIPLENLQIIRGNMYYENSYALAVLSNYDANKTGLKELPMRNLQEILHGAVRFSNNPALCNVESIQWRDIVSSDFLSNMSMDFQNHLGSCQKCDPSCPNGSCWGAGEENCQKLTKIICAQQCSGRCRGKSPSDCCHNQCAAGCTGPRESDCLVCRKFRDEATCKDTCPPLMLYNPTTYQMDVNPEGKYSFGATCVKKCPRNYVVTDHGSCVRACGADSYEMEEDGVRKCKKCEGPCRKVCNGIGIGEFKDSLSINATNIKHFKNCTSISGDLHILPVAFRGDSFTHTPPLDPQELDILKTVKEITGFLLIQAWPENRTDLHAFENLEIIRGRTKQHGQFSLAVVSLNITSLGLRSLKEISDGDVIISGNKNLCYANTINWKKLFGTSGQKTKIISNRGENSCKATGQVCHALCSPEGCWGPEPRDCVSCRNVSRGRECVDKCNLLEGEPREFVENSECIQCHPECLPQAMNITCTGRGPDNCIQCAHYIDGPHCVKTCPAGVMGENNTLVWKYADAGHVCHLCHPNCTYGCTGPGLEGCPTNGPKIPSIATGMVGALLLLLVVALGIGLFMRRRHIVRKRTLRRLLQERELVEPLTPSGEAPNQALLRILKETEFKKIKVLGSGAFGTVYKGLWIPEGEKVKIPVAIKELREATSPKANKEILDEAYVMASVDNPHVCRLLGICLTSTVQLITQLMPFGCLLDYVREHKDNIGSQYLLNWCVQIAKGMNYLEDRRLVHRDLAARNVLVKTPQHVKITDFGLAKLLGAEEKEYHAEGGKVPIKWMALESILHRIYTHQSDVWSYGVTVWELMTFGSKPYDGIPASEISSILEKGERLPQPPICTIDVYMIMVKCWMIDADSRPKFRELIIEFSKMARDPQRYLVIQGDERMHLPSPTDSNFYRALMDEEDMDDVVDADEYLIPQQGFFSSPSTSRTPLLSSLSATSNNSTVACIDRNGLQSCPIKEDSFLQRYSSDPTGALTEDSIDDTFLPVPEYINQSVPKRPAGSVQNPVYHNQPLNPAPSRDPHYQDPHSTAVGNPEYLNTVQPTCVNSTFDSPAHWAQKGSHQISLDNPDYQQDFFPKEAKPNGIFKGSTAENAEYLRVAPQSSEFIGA
T2 sequence (P35968 20-1356, species assumed): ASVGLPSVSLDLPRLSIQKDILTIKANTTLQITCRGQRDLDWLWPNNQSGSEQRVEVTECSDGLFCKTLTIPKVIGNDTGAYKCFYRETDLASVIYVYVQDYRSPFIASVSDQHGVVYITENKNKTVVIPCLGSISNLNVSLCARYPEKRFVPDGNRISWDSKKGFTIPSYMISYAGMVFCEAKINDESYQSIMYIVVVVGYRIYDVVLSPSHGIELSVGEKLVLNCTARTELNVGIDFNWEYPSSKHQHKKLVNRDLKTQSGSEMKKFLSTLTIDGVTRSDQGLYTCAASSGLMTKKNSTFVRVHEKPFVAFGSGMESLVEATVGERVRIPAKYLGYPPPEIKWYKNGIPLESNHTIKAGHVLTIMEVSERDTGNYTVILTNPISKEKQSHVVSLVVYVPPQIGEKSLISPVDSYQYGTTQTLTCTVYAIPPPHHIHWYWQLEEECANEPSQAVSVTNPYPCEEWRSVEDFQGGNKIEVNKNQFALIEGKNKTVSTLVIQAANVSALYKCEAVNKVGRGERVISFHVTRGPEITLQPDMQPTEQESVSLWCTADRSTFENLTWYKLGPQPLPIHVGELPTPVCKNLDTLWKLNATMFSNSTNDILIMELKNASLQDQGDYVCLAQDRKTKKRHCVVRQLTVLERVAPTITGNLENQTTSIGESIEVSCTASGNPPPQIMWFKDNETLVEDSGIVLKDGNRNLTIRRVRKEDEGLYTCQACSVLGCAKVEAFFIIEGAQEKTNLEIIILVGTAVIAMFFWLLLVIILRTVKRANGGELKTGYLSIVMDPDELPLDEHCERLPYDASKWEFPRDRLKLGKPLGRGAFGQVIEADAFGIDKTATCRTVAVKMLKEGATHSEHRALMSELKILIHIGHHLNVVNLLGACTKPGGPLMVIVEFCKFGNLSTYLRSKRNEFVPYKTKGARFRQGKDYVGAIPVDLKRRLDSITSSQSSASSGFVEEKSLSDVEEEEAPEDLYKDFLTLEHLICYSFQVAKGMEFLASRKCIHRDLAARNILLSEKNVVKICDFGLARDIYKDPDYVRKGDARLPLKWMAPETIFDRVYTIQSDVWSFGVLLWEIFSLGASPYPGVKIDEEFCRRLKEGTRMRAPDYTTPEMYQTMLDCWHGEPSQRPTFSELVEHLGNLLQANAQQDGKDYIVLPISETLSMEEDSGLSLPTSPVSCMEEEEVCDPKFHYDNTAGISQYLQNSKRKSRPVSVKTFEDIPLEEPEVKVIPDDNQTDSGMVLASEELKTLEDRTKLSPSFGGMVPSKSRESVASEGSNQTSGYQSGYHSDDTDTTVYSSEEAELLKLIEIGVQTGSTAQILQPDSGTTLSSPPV

SMILES | Hemolysis LC30 (lytic concentration 30%) [1] [µg/mL] | IC50 [2] [µM] | IC50 at 24 h [3] [µM] | IC50 [4] [µM] | IC50 [5] [µM] | IC50 [6] [µM] | Anticancer / antitumor activity (in words) [7] | IC50 [8] [µM] | IC50 [9] [µM] | Bodyweights 0 day ± SD [10] [g] | Bodyweights 7 days ± SD [10] [g] | IC50 [11] [µM] | IC50 [12] [µM] | Reduction of the growth of tumors [13] [%]
COc1ccc(N2CCN(CC(=O)Nc3nc(OC)cc(OC)n3)CC2)cc1 [3i, N-(4,6-Dimethoxypyrimidin-2-yl)-2-(4-(4-methoxyphenyl)piperazin-1-yl)acetamide] | >10000 | 197.5 ± 1.74 | 198.5 ± 1.13 | 2.98 ± 0.09 | 31.8 ± 3.12 | 0.91 ± 0.006 | better anticancer activities compared to the positive control | 22.35 ± 0.1 | 2.22 ± 0.05 | 21.33 ± 0.67 | 25.83 ± 1.30 | 0.9 ± 0.07 | 3.99 ± 0.08 | 
COc1cc(OC)nc(NC(=O)CN2CCN(c3ccccc3F)CC2)n1 [3c, N-(4,6-Dimethoxypyrimidin-2-yl)-2-(4-(2-fluorophenyl)piperazin-1-yl)acetamide] | >10000 | 178 ± 2.02 | 230 ± 3.15 | 4.13 ± 0.01 | 33.8 ± 1.94 | 1.35 ± 0.006 |  | 25.4 ± 2.34 | 0.55 ± 0.02 | 21.09 ± 1.16 | 26.09 ± 0.93 | 2.69 ± 0.1 | 8.94 ± 0.73 | 
COc1cc(OC)nc(NC(=O)CN2CCN(c3cccc(C(F)(F)F)c3)CC2)n1 [3r, N-(4,6-Dimethoxypyrimidin-2-yl)-2-(4-(3-(trifluoromethyl)phenyl)piperazin-1-yl)acetamide] | >10000 | 150 ± 3.03 | 185 ± 2.16 | 4.97 ± 0.01 | 3.87 ± 0.92 | 1.96 ± 0.006 |  | 33.9 ± 3.59 | 0.33 ± 0.07 | 21.00 ± 1.01 | 25.07 ± 1.21 | 4.02 ± 0.01 | 6.95 ± 0.68 | 
COc1cc(OC)nc(NC(=O)CN2CCN(c3ccccc3)CC2)n1 [3d, N-(4,6-Dimethoxypyrimidin-2-yl)-2-(4-phenylpiperazin-1-yl)acetamide] | >10000 | 136 ± 3.15 | 150 ± 2.56 | 9.87 ± 1 | 8.5 ± 0.09 | 5.11 ± 0.03 | worst anticancer activity | 18.5 ± 2.11 | 2.17 ± 0.02 | 21.18 ± 2.15 | 25.57 ± 1.56 | 10.2 ± 0.28 | 10.1 ± 1.08 | 
C#Cc1cccc(Nc2ncnc3cc(OCCOC)c(OCCOC)cc23)c1 [Erlotinib, reference compound] |  | 195.2 ± 1.27 |  | 0.15 ± 0.03 |  |  |  |  | 0.1 ± 0.0004 |  |  | 0.11 ± 0.01 |  | 49.09
COc1cc(OC)nc(NC(=O)CN2CCN(c3ccccn3)CC2)n1 [3m, N-(4,6-Dimethoxypyrimidin-2-yl)-2-(4-(pyridin-2-yl)piperazin-1-yl)acetamide] | >10000 | 165.8 ± 0.59 | 182 ± 3.22 | 2.87 ± 0.004 | 50 ± 4.76 | 2.55 ± 0.67 |  | 3.8 ± 0.036 | 1.55 ± 0.004 | 22.43 ± 1.02 | 22.09 ± 1.02 | 5.11 ± 0.006 | 7.23 ± 0.78 | 
COc1cc(OC)nc(NC(=O)CN2CCN(c3ccc([N+](=O)[O-])cc3)CC2)n1 [3f, N-(4,6-Dimethoxypyrimidin-2-yl)-2-(4-(4-nitrophenyl)piperazin-1-yl)acetamide] | >10000 | 202 ± 4.05 | 155 ± 3.05 | 2.09 ± 0.01 | 24.5 ± 2.56 | 2.12 ± 0.08 |  | 21.5 ± 0.69 | 0.08 ± 0.003 | 20.57 ± 1.43 | 27.25 ± 1.50 | 4.99 ± 0.07 | 7.67 ± 0.07 | 
N.N.[Cl][Pt][Cl] [DDCP, reference compound] | >10000 |  |  |  |  |  |  |  |  |  |  |  |  | 
